Results: patent US12573042B2, “Differentiation device, differentiation method for depression symptoms, determination method for level of depression symptoms, stratification method for depression patients, determination method for effects of treatment of depression symptoms, and brain activity training device” (ADVANCED TELECOMMUNICATIONS RESEARCH INSTITUTE INTERNATIONAL, priority 2017, dated 2026)

What was measured:
Assay type in all cases: in vivo, human
melancholic MDD patients [1] = experiment: WLS score (related weighted sum of 12 functional connectivities, rs-fMRI) before and after antidepressant administration; conditions: 24 remitted melancholic MDD patients, administered for 6 weeks to 8 weeks, FIG. 31c
Method: In this manner, a regression expression for classifying a melancholic MDD patient and a healthy individual, namely, a classifier, was created. Further, a related weighted sum (the associated weighted linear sum: WLS) was calculated as an indicator for determining whether each subject has the melancholic MDD or is healthy.
Next, whether an effect of escitalopram, which is a selective serotonin reuptake inhibitor (SSRI), can be evaluated by the WLS score was considered. A smoothed histogram of the WLS score of each of 24 remitted melancholic MDD patients shown in Table 1a, to whom escitalopram was administered for 6 weeks to 8 weeks, is shown in FIG. 31c.

melancholic MDD patients [2] = experiment: Change of functional connectivities FC #1 and FC #2 (rs-fMRI) through antidepressant treatment
Excerpt: Next, contribution to ΔWLS was considered for each functional connectivity in order to consider an influence of SSRI (escitalopram) on each of the 12 pairs of functional connectivities.
Specifically, in preliminary and subsequent analysis of administration, the following numerical expression was used to calculate a contribution score of each functional connectivity.
That is, si represents a difference in average connectivity strength between the healthy control group and the MDD group weighted by the weight of the classifier. […] Further, in Expression 2, FCi^MDD represents reduction (a negative sign through subtraction). […] In other words, the fact that ci becomes negative means that FCi after treatment becomes closer to the corresponding FC of a healthy individual. In contrast, the fact that ci becomes positive means that FCi after treatment becomes closer to the MDD. The numbers of members in the healthy control group and in the MDD group are different from each other, and thus the significant difference between ci and si for each FCi is evaluated by a Welch's t-test. The Welch's t-test is calculated in accordance with the following numerical expression.

healthy subjects = experiment: Change of FC #1 and FC #2 (rs-fMRI) on administration of SSRI to healthy subjects; conditions: 19 healthy subjects, single administration, p=0.033; no difference before (p=0.18)
Excerpt: In a test by two-way analysis of variance, the functional connectivities of FC #1 and FC #2 have a significant temporal interaction through treatment (FC #number x time, F (1,23)=6.70, p=0.016), and a significant difference was not observed for each primary effect. […] In all the diagrams of FIG. 32 and FIG. 33, transition toward the positive direction indicates transition toward the direction of the melancholic MDD, whereas transition toward the negative direction indicates transition toward the direction of the healthy individual. This is because the sign of the weight of the melancholic MDD classifier was multiplied by the FC or the difference in FC. […] Eleven melancholic MDD patients (serotonin-norepinephrine reuptake inhibitor (SNRI) duloxetine was administered for 6 weeks to 8 weeks) gathered in Chiba were considered (FIG. 32c). […] Next, the changes of FC #1 and FC #2 at the time of administration of SSRI to healthy subjects (19 persons) were observed. […] There was no difference before treatment (p=0.18), and a significant relation was […] observed (FIG. 32d).

For `CN(C)CCC[C@@]1(c2ccc(F)cc2)OCc2cc(C#N)ccc21` [escitalopram], the “distribution of the WLS score after administration” value (melancholic MDD patients [1]) was “shifted toward the healthy control group”, the “difference between FC #1 and FC #2 after treatment” value (melancholic MDD patients [2]; Hiroshima cohort, corresponding t-test p=0.002, no difference before treatment (p=0.96)) was “significant difference was observed after treatment” and the “transition of FC #1 after treatment” value (melancholic MDD patients [2]; Hiroshima cohort, positive direction = direction of melancholic MDD) was “transitioned toward the positive direction”.
For `Fc1ccc([C@@H]2CCNC[C@H]2COc2ccc3c(c2)OCO3)cc1` [paroxetine], the “difference between FC #1 and FC #2 after administration” value (healthy subjects) was “significant difference between FC #1 and FC #2 was observed”.
In the case of `CNCC[C@H](Oc1cccc2ccccc12)c1cccs1` [duloxetine], the “difference between FC #1 and FC #2 after treatment” value (melancholic MDD patients [2]; 11 melancholic MDD patients of Chiba, administered for 6 weeks to 8 weeks, paired t-test p=0.10, before treatment n.s. p=0.77) is reported as “difference in trend level”.
